Test results as given in US9907790B2, “Solid forms of an ASK1 inhibitor” (Gilead Sciences, Inc., priority 2014, dated 2018).

Assay: High humidity stress test at 75% RH/RT
Type: physicochemical
Conditions: not given

Row | Molecule | deliquescence in high humidity stress test
1 | Cc1cc(F)c(C(=O)Nc2cccc(-c3nncn3C(C)C)n2)cc1-n1cnc(C2CC2)c1.O=S(=O)(O)O [Compound I Sulfate Form I, 5-(4-cyclopropyl-1H-imidazol-1-yl)-N-(6-(4-isopropyl-4H-1,2,4-triazol-3-yl)pyridin-2-yl)-2-fluoro-4-methylbenzamide sulfate] | did not show any evidence of deliquescence
2 | 5-(4-cyclopropyl-1H-imidazol-1-yl)-N-(6-(4-isopropyl-4H-1,2,4-triazol-3-yl)pyridin-2-yl)-2-fluoro-4-methylbenzamide glutarate [Compound I Glutarate Form I] | did not show any evidence of deliquescence
3 | Cc1cc(F)c(C(=O)Nc2cccc(-c3nncn3C(C)C)n2)cc1-n1cnc(C2CC2)c1.Cl [Compound I HCl Form I, 5-(4-cyclopropyl-1H-imidazol-1-yl)-N-(6-(4-isopropyl-4H-1,2,4-triazol-3-yl)pyridin-2-yl)-2-fluoro-4-methylbenzamide hydrochloride] | did not show any evidence of deliquescence
4 | 5-(4-cyclopropyl-1H-imidazol-1-yl)-N-(6-(4-isopropyl-4H-1,2,4-triazol-3-yl)pyridin-2-yl)-2-fluoro-4-methylbenzamide edisylate [Compound I Edisylate Form I] | did not show any evidence of deliquescence
5 | 5-(4-cyclopropyl-1H-imidazol-1-yl)-N-(6-(4-isopropyl-4H-1,2,4-triazol-3-yl)pyridin-2-yl)-2-fluoro-4-methylbenzamide gentisate [Compound I Gentisate Form II] | did not show any evidence of deliquescence
6 | Cc1cc(F)c(C(=O)Nc2cccc(-c3nncn3C(C)C)n2)cc1-n1cnc(C2CC2)c1.O=C(O)C(=O)O [Compound I Oxalate Form I, 5-(4-cyclopropyl-1H-imidazol-1-yl)-N-(6-(4-isopropyl-4H-1,2,4-triazol-3-yl)pyridin-2-yl)-2-fluoro-4-methylbenzamide oxalate] | did not show any evidence of deliquescence
7 | CS(=O)(=O)O.Cc1cc(F)c(C(=O)Nc2cccc(-c3nncn3C(C)C)n2)cc1-n1cnc(C2CC2)c1 [Compound I Mesylate Form I, 5-(4-cyclopropyl-1H-imidazol-1-yl)-N-(6-(4-isopropyl-4H-1,2,4-triazol-3-yl)pyridin-2-yl)-2-fluoro-4-methylbenzamide mesylate] | did not show any evidence of deliquescence
8 | CCS(=O)(=O)O.Cc1cc(F)c(C(=O)Nc2cccc(-c3nncn3C(C)C)n2)cc1-n1cnc(C2CC2)c1 [Compound I Esylate Form I, 5-(4-cyclopropyl-1H-imidazol-1-yl)-N-(6-(4-isopropyl-4H-1,2,4-triazol-3-yl)pyridin-2-yl)-2-fluoro-4-methylbenzamide esylate] | did not show any evidence of deliquescence
9 | 5-(4-cyclopropyl-1H-imidazol-1-yl)-N-(6-(4-isopropyl-4H-1,2,4-triazol-3-yl)pyridin-2-yl)-2-fluoro-4-methylbenzamide propyl gallate [Compound I Propyl Gallate Form I] | did not show any evidence of deliquescence

Assay: Stable form screen of Compound I (suspension in solvents at RT, solids analysed by XRPD)
Type: physicochemical
Conditions: starting from Compound I Form I, suspended in DCM at RT
Description: Compound I Form I was suspended with stirring in capped glass vials at RT. Samples from the suspensions were centrifuged/filtered and the isolated solids and liquids were analyzed. Solids were analyzed by XRPD and liquids were analyzed for solubility by […]. Sampling and analysis were performed after one day and greater than fourteen days.

Row | Molecule | 14+ Day XRPD | 24 Hour XRPD
10 | Cc1cc(F)c(C(=O)Nc2cccc(-c3nncn3C(C)C)n2)cc1-n1cnc(C2CC2)c1 [Compound I Form I, 5-(4-cyclopropyl-1H-imidazol-1-yl)-N-(6-(4-isopropyl-4H-1,2,4-triazol-3-yl)pyridin-2-yl)-2-fluoro-4-methylbenzamide] | mixture of Compound I Form II and Compound I Form V | mixture of Forms II and V
